In brackets after ≈: the same amount, converted by molar mass.
conditions: buffer; pH 7.4; 200.0 µM

Row | SMILES | solubility kinetic [µg/mL]
1 | COc1ccccc1NC(=O)CC(=O)c1cccc([N+](=O)[O-])c1 | 2.9 (≈ 9.23 µM)
2 | O=C(C1CC1)N1CCN(Cc2ccccc2)CC1 | 33.5 (≈ 137 µM)
3 | O=C1NC(=O)C(c2cccs2)(c2cccs2)N1 | > 39.6
4 | NCCc1nnc(SCC(=O)Nc2cccc(Cl)c2)o1 | > 46.9
5 | CC1CCCCC1NC(=O)COC(=O)c1cc(=O)c2ccccc2o1 (stereo not given) | > 51.5
6 | COC(=O)c1ccc(N)nc1 | > 22.8
7 | COc1ccc2nc(COC(=O)c3cccs3)c(C(C)=O)[n+]([O-])c2c1 | 1.6 (≈ 4.46 µM)
8 | CCN(C(=O)COC(=O)c1ccc(SC)cc1OC)C1CCS(=O)(=O)C1 (stereo not given) | > 60.2
9 | O=C1CCC(C(=O)OCC(=O)c2ccccc2)N1 (stereo not given) | > 37.1
10 | N#CC(C#N)=Cc1c[nH]c(=O)c(C#N)c1Nc1ccccc1 | > 43.1
11 | N/C(Cc1ccc([N+](=O)[O-])cc1)=N\OC(=O)c1ccco1 | 18 (≈ 62.2 µM)
12 | CCOC(=O)CN1C(=O)C(=O)N(Cc2cccc(C)c2)C1=O | > 45.6
13 | Cc1ccccc1NC(=O)CN1C(=O)CSc2ccccc21 | 3.6 (≈ 11.5 µM)
14 | CCN1C(=O)c2cccc3c(S(=O)(=O)Nc4ccccc4O)ccc1c23 | 0.5 (≈ 1.36 µM)
15 | C=CCn1c(SCC(=O)C23CC4CC(CC(C4)C2)C3)nc(O)cc1=O | > 54.1
16 | CCOc1cc(/C=C2/NC(=O)N(CC(=O)OC)C2=O)ccc1O | 14.8 (≈ 46.2 µM)
17 | OC(CCN1CCCCC1)c1ccc(-c2ccccc2)cc1 (stereo not given) | > 44.3
18 | O=C(CSc1ccccc1)NC1CCCCCCC1 | 40.6 (≈ 146 µM)
19 | CC1CCN(C(=O)CNC(=O)c2cccc(OC(F)F)c2)CC1 | > 49
20 | Cc1ccc(C)n1-c1ccccc1N1CCCCC1 | 6.4 (≈ 25.2 µM)

Row | SMILES | solubility kinetic [µg/mL]
21 | CCNc1c(NC(=O)c2cccs2)c(=O)oc2ccccc12 | 4.5 (≈ 14.3 µM)
22 | CC(=O)c1c(C)[nH]c(C(=O)NCC2CCCCC2)c1C | 23.4 (≈ 84.7 µM)
23 | Cc1cc(=O)n(CC(=O)Nc2cc(Cl)ccc2C)c(C(C)C)n1 | 40.4 (≈ 121 µM)
24 | Cc1ccc2c(c1)CCCN2C(=O)c1cc(C)c(C)s1 | 3.9 (≈ 13.7 µM)
25 | CCOc1ccc(N2C=Nc3ccc(OCC)cc3C2)cc1 | 11.6 (≈ 39.1 µM)
26 | Cc1ccn2cc(-c3ccc(Br)cc3)nc2c1 | 1.2 (≈ 4.18 µM)
27 | CC1(C)CC(=O)C=C(Nc2ccc3c(c2)CCC3)C1 | 35.8 (≈ 140 µM)
28 | CCc1ccccc1NC(=O)CN(C1CCCCC1)S(C)(=O)=O | > 50.8
29 | COc1ccc(/C=C/C(=O)OCC(=O)NC2CCCCCC2)cc1OC | 7.1 (≈ 19.6 µM)
30 | Cc1nc(CNS(=O)(=O)c2cc([N+](=O)[O-])ccc2C)cs1 | 10.3 (≈ 31.5 µM)
31 | COc1cc(NC(=O)c2ccccc2)c(OC)cc1NC(=O)Cc1ccc(C)cc1 | < 0.4
32 | COP(=O)(c1ccc(N(C)C)cc1)C(O)c1ccccc1 (stereo not given) | > 45.8
33 | O=C(Nc1ccccn1)c1ccc(C(=O)Nc2ccccn2)cc1 | 0.5 (≈ 1.57 µM)
34 | CC[C@H](C)[C@H](NC(N)=O)C(=O)Nc1ccc2c(c1)OCO2 | 38.6 (≈ 132 µM)
35 | COc1ccc(OC)c(CNC(=O)C2CCC(=O)N2C(C)C)c1 (stereo not given) | > 48.1
36 | CCC(=O)Nc1cccc(-c2cn3cccc(C)c3n2)c1 | 39.8 (≈ 142 µM)
37 | O=C(COC(=O)/C=C/c1cccs1)Nc1ccc(F)cc1 | 8.4 (≈ 27.5 µM)
38 | CC(C)(C)c1ccc(C(=O)C2CCCN(C3CCC3)C2)cc1 (stereo not given) | 37.9 (≈ 127 µM)
39 | CC(C)c1ccc(NS(=O)(=O)c2ccc(N3C(=O)CCC3=O)cc2)cc1 | 43.6 (≈ 117 µM)
40 | CC1=C(C)CC(C(=O)Nc2nc(C)cs2)C(C(=O)O)C1 (stereo not given) | > 44.2

Row | SMILES | solubility kinetic [µg/mL]
41 | CC(=O)c1cccc(NC(=O)C(NC(C)C)c2ccccc2)c1 (stereo not given) | > 46.6
42 | CC(=O)Nc1c(C(=O)Nc2ccc3c(c2)OCO3)oc2ccccc12 | 3.2 (≈ 9.46 µM)
43 | Cc1cc(NC(=O)c2ccno2)no1 | > 29
44 | CN(c1ccccc1)S(=O)(=O)c1ccc2[nH]c(=O)[nH]c2c1 | 16.6 (≈ 54.7 µM)
45 | Cl.O=C(CN1CCCC1)NCc1ccccc1 | 32.6
46 | CCOc1ccc(C(=O)NCCN2CCCCC2)c(OCC)c1 | > 48.1
47 | COc1cc(OC)nc(Oc2cc(C=O)ccc2OC)n1 | > 43.5
48 | O=C(COC(=O)c1ccc([N+](=O)[O-])s1)NNC(=O)c1ccccc1 | > 52.4
49 | CC(C)(C)C(=O)N1CCN(c2nc3ccc(Cl)cc3s2)CC1 | 2.3 (≈ 6.81 µM)
50 | O=Cc1cccc(OC(=O)Nc2ccccc2)c1 | 29.2 (≈ 121 µM)
51 | CC(=O)Nc1cccc(-c2nc3ccccc3o2)c1 | 6.3 (≈ 25 µM)
52 | O=C(COc1ccc(Br)cc1)NC1CC1 | > 40.5
53 | CN(c1ccccc1)c1nc(N)c([N+](=O)[O-])c(N2CCOCC2)n1 | 47.6 (≈ 144 µM)
54 | COc1ccc(Oc2ccccc2C#N)cc1 | 9.9 (≈ 44 µM)
55 | CN(C)c1ccc(/C=N/NC(=O)c2ccn(C)n2)cc1 | > 40.7
56 | CCOc1ccc(Cc2onc3c2C(=O)CC(C)(C)C3)cc1OCC | 32.6 (≈ 94.9 µM)
57 | CNC(=O)/C(C#N)=C/c1cn(CC(=O)OC)c2ccccc12 | 7.8 (≈ 26.2 µM)
58 | CCn1c(C)c(C(=O)NCCc2ccccc2)c2cc(OC)ccc21 | 23 (≈ 68.4 µM)
59 | COc1ccc(-c2nc(C#N)c(N3CCCCC3)o2)cc1 | 0.3 (≈ 1.06 µM)
60 | CN(C)c1cc(-c2ccc(F)cc2)oc(=O)c1Cl | 7.2 (≈ 26.9 µM)

Source: PubChem BioAssay AID1996
